{"source": "patent US20140162991A1", "about": "“TESTOSTERONE-ANASTROZOLE (T + A) C[…] IN THE NEO-ADJUVANT, LOCAL AND SYSTEMIC THERAPY OF NEWLY DIAGNOSED, […] BREAST CANCER” (priority 2012, published 2014)", "assay": "adverse effects and systemic symptoms in treated patients", "conditions": "pharmacologic doses of testosterone"}
{"smiles": "C[C@]12CC[C@H]3[C@@H](CCC4=CC(=O)CC[C@@]43C)[C@@H]1CC[C@@H]2O", "note": "[testosterone]", "values": [{"measurement": "adverse events", "result": "not associated with adverse events"}, {"measurement": "androgenic side effect", "setting": "applicant's patients", "result": "slight increase in facial hair"}]}
